The conditions of series [1]: cited from earlier work.
The conditions of series [2]: nicotine salt complex.
The conditions of series [3]: free-base nicotine; depending on concentration; cited from earlier work.
Another series concerns respiratory tract. Conditions: user perception, nicotine citrate compared with nicotine hexanoate.
Setting [4] is: Table 7, nicotine salt (organic acid).
Where [5] appears, read: Table 5, organic acid, second value.
Setting [6] is: Table 7, nicotine salt (organic acid), second value.
Setting [7] is: Table 7, nicotine salt (organic acid), third value printed in the cell.

Like-named read-outs stand apart in the source and are kept apart here.

As for Nicotine acetylsalicylate, the pKa – broadly, the pH at which an ionisable group is half protonated – in series [1] (setting [4]) is 3.49.
As to Nicotine pyruvate, the pKa in series [1] (setting [4]) is listed as 2.50.
On to Nicotine vanillate, for which, in series [1] (setting [4]), the pKa is on record as 4.51.
Regarding `CN1CCCC1c1cccnc1.O=C(O)CC(O)C(=O)O` (centres unmarked) [Nicotine malate], in series [2], the pH entry is listed as “around 6.5”.
Regarding Nicotine glutarate, in series [1] (setting [4]), the pKa is 4.34.
As for `O=C(O)C[C@H](C(=O)O)[C@@H](O)C(=O)O` [Isocitric Acid], the pKa in series [1] (Table 5, organic acid) is recorded as 3.29; in series [1] (setting [5]) it was 4.71; in series [1] (Table 5, organic acid, third value printed in the cell), 6.40.
For `CN1CCCC1c1cccnc1` (centres unmarked) [nicotine], the pH in series [3] was roughly 10.
As for `CN1CCCC1c1cccnc1.N[C@@H](Cc1ccccc1)C(=O)O` (centres unmarked) [Nicotine phenylalanate], the pKa in series [1] (setting [4]) is 1.83.
Regarding Nicotine lysinate, the pKa in series [1] (setting [4]) is 2.18.
As to Nicotine methioninate, the pKa in series [1] (setting [4]) was 2.28.
For the molecule `CN1CCCC1c1cccnc1.C[C@H](N)C(=O)O` (centres unmarked) [Nicotine alanate], the pKa in series [1] (setting [4]) is on record as 2.34.
In the case of `CN1CCCC1c1cccnc1.O=C(O)CC(O)(CC(=O)O)C(=O)O` [Nicotine citrate], the “throat hit / sensation in the respiratory tract” value with respiratory tract is reported as “stronger throat hit”.
Take `CN1CCCC1c1cccnc1.O=C(O)c1cc(C(=O)O)cc(C(=O)O)c1` [Nicotine trimesate]: the pKa is 3.12 in series [1] (setting [4]), 3.89 in series [1] (setting [6]) and 4.70 in series [1] (setting [7]).
Take `CN1CCCC1c1cccnc1.O=C(O)CC(C(=O)O)C(O)C(=O)O` (centres unmarked) [Nicotine isocitrate]: the pKa in series [1] (setting [4]) is recorded as 3.29; in series [1] (setting [6]), 4.71; in series [1] (setting [7]), 6.40.
`CC(=O)CC(=O)O` [3-Oxobutanoic Acid (Acetoacetic Acid), 3-Oxobutanoic Acid]: the pKa in series [1] (Table 5, organic acid) is given as 3.58.
For the molecule Nicotine 2-hydroxyisocaproate, the pKa in series [1] (setting [4]) was 4.26.
Regarding `CN1CCCC1c1cccnc1.O=C(O)C(=O)O.O=C(O)CC(O)C(=O)O` (centres unmarked) [Nicotine N-malate-N′-oxalate], the pH in series [2] is recorded as roughly 5.5.
With Nicotine acetoacetate, the pKa in series [1] (setting [4]) is 3.58.
As to Nicotine 4-hydroxybenzoate, in series [1] (setting [4]), the pKa was 4.54.
Consider `CC(=O)C(=O)O` [Pyruvic Acid], for which the pKa in series [1] (Table 5, organic acid) is listed as 2.50.
`CCC(=O)O.CN1CCCC1c1cccnc1` (centres unmarked) [Nicotine propionate]: in series [2], the pH is roughly 6.5.
Consider Nicotine valinate, for which the pKa in series [1] (setting [4]) was 2.32.
For Nicotine isocaproate, the pKa in series [1] (setting [4]) is given as 5.09.
Take Nicotine gluconate: the pKa in series [1] (setting [4]) is given as 3.86.
Regarding Nicotine valerate, the pKa in series [1] (setting [4]) was 4.84.
On to Nicotine hexanoate, for which, in series [1] (setting [4]), the pKa is reported as 4.88.
For the molecule Nicotine levulinate, the pKa in series [1] (setting [4]) and in series [1] was 4.64 throughout.
With Nicotine tryptophanate, the pKa in series [1] (setting [4]) is 2.83.
As to Nicotine cinnamate, the pKa in series [1] (setting [4]) is given as 4.44.
As for `CN1CCCC1c1cccnc1.O=C(O)C=C(CC(=O)O)C(=O)O` (stereo not drawn) [Nicotine trans-aconitate], the pKa in series [1] (setting [4]) is reported as 2.80; in series [1] (setting [6]), 4.46.
For the molecule `O=C(O)CC(O)C(=O)O` (centres unmarked) [Malic Acid], the pKa in series [1] (Table 5, organic acid) was 3.51; in series [1] (setting [5]), 5.03. Further, the pKa1 in series [1] (pH for binding of second carboxylic acid group) is on record as 5.03.
On to Nicotine phthalate, for which the values for the pKa in series [1] (setting [4]) and in series [1] (setting [6]) were 2.76 and 4.92, respectively.
In the case of `CC(=O)O.CN1CCCC1c1cccnc1` (centres unmarked) [Nicotine acetate], in series [2], the pH is roughly 6.5.
With `C#CC(=O)O.CN1CCCC1c1cccnc1` (centres unmarked) [Nicotine propiolate], the pKa in series [1] (setting [4]) is given as 1.84.
With `CN1CCCC1c1cccnc1.NCC(=O)O` (centres unmarked) [Nicotine glycinate], in series [1] (setting [4]), the pKa is given as 2.34.
Turning to Nicotine 3-hydroxyglutarate, the pKa in series [1] (setting [4]) was 3.52.
In the case of `O=C(O)/C=C(/CC(=O)O)C(=O)O` [cis-Aconitic Acid], the pKa in series [1] (Table 5, organic acid) is reported as 1.95.
As to Oxalic Acid, the pKa in series [1] (Table 5, organic acid) is 1.46; in series [1] (setting [5]), 4.40.
For Nicotine asparaginate, the pKa in series [1] (setting [4]) is recorded as 2.02.
For `CN1CCCC1c1cccnc1.O=C(O)C=C(CC(=O)O)C(=O)O` (stereo not drawn) [Nicotine cis-aconitate], the pKa in series [1] (setting [4]) is reported as 1.95.
On to Nicotine cysteinate, for which the pKa in series [1] (setting [4]) is recorded as 1.96.

Values taken from US20200315241A1 (Nude Nicotine, Inc., priority 2017, published 2020).
